In patent US9855265B2, “Methods for treating cancer with TrkA receptor tyrosine kinase antagonists” (VM Oncology LLC, priority 2014, dated 2018):

Tests used:
PKG1b = PKG1b (Homo sapiens, UniProt Q13976); test: radiometric kinase assay, other kinases: PKG1b; assay type: biochemical; details: duplicate
Method: (§1) Compound inhibition in a radiometric based mixed micelle assay: In a final reaction volume of 25 μL, TrkA (h) ([…]) is incubated with the kinase reaction buffer (20 mM HEPES (pH 7.5), 10 mM MgCl2, 1 mM EGTA, 0.02% Brij 35, 0.02 mg/ml BSA, 0.1 mM Na3VO4, 2 mM DTT, 1% DMSO), 0.2 mg/ml substrate PolyEY(4:1) and […], and [^33P-ATP](specific activity approx. 500 cpm/pmol, concentration as required). The reaction is initiated by the addition of the MgATP mix. After incubation for at least 40 minutes at room temperature, the reaction is stopped by the addition of 5 μL of a 3% phosphoric acid solution. 10 μL of the reaction is then spotted onto a P30 filtermat and washed three times for 5 minutes in 75 mM phosphoric acid and once in methanol prior to drying and scintillation counting. TrkA: Recombinant Human Cytoplasmic Domain (amino acids 441-796), Histidine-tagged, expressed in insect cells. Activated in vitro via auto-phosphorylation. Mw=42.8 kDa. Substrates for kinases: poly(EY) for TRKA; poly(EY)(4:1) with 2 mM MnCl2, average Mw=16 kDa Standard conditions (unless otherwise specified): 30 nM TRKA, 0.2 mg/ml poly(EY)+2 mM MnCl2, and 10 μM ([γ-^33P]) ATP. Using the similar assay condition with other kinases of recombinant human cytoplasmic domain, the activities of other kinases could be also measured.

PKD2/PRKD2 = PKD2/PRKD2 (Homo sapiens, UniProt Q9BZL6); test: radiometric kinase assay, other kinases: PKD2/PRKD2; assay type: biochemical; details: duplicate
PKD2/PRKD2, sequence (Q9BZL6 whole entry): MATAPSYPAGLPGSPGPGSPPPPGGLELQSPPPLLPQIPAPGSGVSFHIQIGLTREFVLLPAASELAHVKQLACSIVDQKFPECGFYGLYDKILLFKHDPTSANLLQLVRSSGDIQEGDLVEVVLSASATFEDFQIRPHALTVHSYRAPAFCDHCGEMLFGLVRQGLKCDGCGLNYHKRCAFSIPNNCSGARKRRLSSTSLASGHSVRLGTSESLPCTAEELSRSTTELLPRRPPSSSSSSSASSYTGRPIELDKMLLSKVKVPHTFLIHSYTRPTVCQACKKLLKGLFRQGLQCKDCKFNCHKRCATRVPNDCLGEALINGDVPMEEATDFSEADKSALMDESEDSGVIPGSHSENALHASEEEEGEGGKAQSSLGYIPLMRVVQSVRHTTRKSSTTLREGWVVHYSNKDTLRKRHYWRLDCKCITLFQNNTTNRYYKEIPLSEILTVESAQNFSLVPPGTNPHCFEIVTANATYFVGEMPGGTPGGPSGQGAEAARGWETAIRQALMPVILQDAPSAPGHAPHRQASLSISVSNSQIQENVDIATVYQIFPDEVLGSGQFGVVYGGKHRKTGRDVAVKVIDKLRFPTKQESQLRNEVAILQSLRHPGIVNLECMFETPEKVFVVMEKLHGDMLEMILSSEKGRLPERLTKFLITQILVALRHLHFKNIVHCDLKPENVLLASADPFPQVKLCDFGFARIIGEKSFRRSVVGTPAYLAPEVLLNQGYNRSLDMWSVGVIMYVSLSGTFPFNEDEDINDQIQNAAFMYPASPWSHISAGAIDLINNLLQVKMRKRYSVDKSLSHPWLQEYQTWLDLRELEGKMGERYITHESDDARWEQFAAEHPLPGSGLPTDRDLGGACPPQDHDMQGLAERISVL
Method: as §1

MEK1 = MEK1 (Homo sapiens, UniProt Q02750); test: radiometric kinase assay, other kinases: MEK1; assay type: biochemical; details: duplicate
Method: as §1

PDGFRb = molecular target: T1, PDGFRb (Homo sapiens, UniProt P09619); test: radiometric kinase assay, other kinases: PDGFRb; assay type: biochemical; details: duplicate
T1 construct: other kinases of recombinant human cytoplasmic domain
Method: as §1

[1] = tested on: HepG2 human liver cancer cells; test: Cell Viability and Proliferation Assay, HepG2; assay type: cell-based; details: after 24 incubation
Method: (§2) Cell Viability and Proliferation Assays. To assess the chemosensitivity of tumor cells, cell viability is measured by CellTiter-Glo® Luminescent Cell Viability Assay (Promega; Wis., USA) per the manufacturer's instruction. Briefly, 5×10^3 to 7×10^5 cells/ml are cultured in sterile 96-well plates in the presence of increasing concentrations of the drugs (test article, 0 to 100 μM), or vehicle in RPMI medium. The plates are then incubated for 24 to 96 h, and then 100 μl of CellTiter-Glo reagent is added to lyse the cells. After a 10-min incubation at room temperature, the luminescence is recorded in a luminometer with an integration time of 1 s per well. The luminescence signals for the drug-treated cells are normalized by the luminescence signal obtained from vehicle-treated cells. As an alternative method to quantitate cell viability, the trypan blue exclusion dye method was used. Vehicle- or drug-treated cells were assayed by adding trypan blue solution (0.4% in phosphate-buffered saline [PBS]) to the culture medium. After 3 min, the number of dead cells that retained the dye is compared to the total number of cells to calculate cell viability. GraphPad Prism 5 software is used to calculate IC50 and plot effect-dose curve of drugs. Multiplate reader: EnVision 2104 (PerkinElmer). % of control variability=100*[(X(drug_treated)−L(baseline))/(H(vehicle_control)−L(baseline))]. […]

CDK1/cyclinB = CDK1/cyclinB (Homo sapiens, UniProt P06493); test: radiometric kinase assay, other kinases: CDK1/cyclinB; assay type: biochemical; details: duplicate
Method: as §1

MUSK = molecular target: T2, MUSK (Homo sapiens, UniProt O15146); test: radiometric kinase assay, other kinases: MUSK; assay type: biochemical; details: duplicate
T2 construct: other kinases of recombinant human cytoplasmic domain
Method: as §1

[2] = tested on: CCI rats, mechanical allodynia; details: CCI rats, 150 mg/kg oral dose
Method: Chronic Constriction Injury (CCI) Model of Neuropathic Pain in Rats. […] Chronic constriction injury of the sciatic nerve was produced by tying four loose ligatures around the left sciatic nerve according to the method of Bennett and Xie. […] Calibrated von Frey filaments were used to determine the lowest mechanical (tactile) threshold required to evoke a brisk paw withdrawal reflex in the rat hindpaws. Rats were allowed to acclimatize in wire mesh cages for 15-20 min prior to von Frey testing. Assessment of paw withdrawal thresholds (PWTs) using von Frey filaments was undertaken prior to CCI-surgery (pre-surgery baseline on day 0). Before the drug dosing on day 14, the pre-dose baseline was recorded for each rat. […] Drug-naïve CCI-rats (n=4-6 per group) were used. The oral vehicle was 0.5% CMC-Na/0.1% Tween 80 in distilled water. The positive control gabapentin was dissolved in the vehicle and orally given at 100 mg/kg (by oral gavage). Test compound was suspended in the vehicle and orally given at 50 mg/kg and 100 mg/kg.

c-MET = molecular target: T3, c-MET (Homo sapiens, UniProt P08581); test: radiometric kinase assay, other kinases: c-MET; assay type: biochemical; details: duplicate
T3 construct: other kinases of recombinant human cytoplasmic domain
Method: as §1

PKCepsilon = PKCepsilon (Homo sapiens, UniProt Q02156); test: radiometric kinase assay, other kinases: PKCepsilon; assay type: biochemical; details: duplicate
Method: as §1

PKCbetaII = PKCbetaII (Homo sapiens, UniProt P05771); test: radiometric kinase assay, other kinases: PKCbetaII; assay type: biochemical; details: duplicate
PKCbetaII, sequence (P05771 1-673 isoform P05771-2): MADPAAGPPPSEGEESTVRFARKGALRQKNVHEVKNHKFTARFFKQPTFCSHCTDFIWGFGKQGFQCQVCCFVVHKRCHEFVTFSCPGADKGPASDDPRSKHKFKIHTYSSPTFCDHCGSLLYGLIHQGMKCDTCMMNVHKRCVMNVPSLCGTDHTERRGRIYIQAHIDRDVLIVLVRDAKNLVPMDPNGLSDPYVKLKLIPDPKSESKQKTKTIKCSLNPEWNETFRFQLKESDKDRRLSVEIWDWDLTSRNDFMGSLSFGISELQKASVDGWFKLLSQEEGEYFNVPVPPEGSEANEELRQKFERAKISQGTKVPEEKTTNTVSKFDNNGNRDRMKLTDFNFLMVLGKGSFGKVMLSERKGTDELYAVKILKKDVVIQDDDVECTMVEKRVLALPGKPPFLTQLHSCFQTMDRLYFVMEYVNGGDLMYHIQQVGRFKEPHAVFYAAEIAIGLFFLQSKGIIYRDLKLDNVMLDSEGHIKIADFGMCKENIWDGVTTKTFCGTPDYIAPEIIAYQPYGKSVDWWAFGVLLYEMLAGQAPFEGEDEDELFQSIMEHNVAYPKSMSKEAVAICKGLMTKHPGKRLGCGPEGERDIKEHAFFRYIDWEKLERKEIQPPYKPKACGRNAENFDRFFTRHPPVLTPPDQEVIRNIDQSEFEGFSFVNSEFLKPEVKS
Method: as §1

[3] = tested on: Panc-1 human pancreatic cancer cells; test: Cell Viability and Proliferation Assay, Panc-1; assay type: cell-based; details: after 24 incubation
Method: as §2

P38b/MAPK11 = P38b/MAPK11 (Homo sapiens, UniProt Q15759); test: radiometric kinase assay, other kinases: P38b/MAPK11; assay type: biochemical; details: duplicate
Method: as §1

ITK = ITK (Homo sapiens, UniProt Q08881); test: radiometric kinase assay, other kinases: ITK; assay type: biochemical; details: duplicate
ITK, sequence (Q08881 whole entry): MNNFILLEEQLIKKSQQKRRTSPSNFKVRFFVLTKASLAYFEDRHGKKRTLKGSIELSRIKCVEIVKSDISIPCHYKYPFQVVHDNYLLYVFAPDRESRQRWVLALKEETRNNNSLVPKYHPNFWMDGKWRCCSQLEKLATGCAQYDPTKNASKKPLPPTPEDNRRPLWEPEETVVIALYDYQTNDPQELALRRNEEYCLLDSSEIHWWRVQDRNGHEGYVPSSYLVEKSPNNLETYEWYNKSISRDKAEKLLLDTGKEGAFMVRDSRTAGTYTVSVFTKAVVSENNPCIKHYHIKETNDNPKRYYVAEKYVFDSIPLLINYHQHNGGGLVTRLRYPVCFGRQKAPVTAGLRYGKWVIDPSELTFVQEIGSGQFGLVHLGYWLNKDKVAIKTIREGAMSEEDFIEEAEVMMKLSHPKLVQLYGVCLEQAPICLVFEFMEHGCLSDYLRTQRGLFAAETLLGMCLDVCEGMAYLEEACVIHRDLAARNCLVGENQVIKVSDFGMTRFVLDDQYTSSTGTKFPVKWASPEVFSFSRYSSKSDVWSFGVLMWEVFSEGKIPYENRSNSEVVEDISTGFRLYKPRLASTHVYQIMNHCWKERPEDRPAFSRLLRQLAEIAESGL
Method: as §1

MLK1/MAP3K9 = MLK1/MAP3K9 (Homo sapiens, UniProt P80192); test: radiometric kinase assay, other kinases: MLK1/MAP3K9; assay type: biochemical; details: duplicate
Method: as §1

CDK2/cyclinE = CDK2/cyclinE (Homo sapiens, UniProt P24941); test: radiometric kinase assay, other kinases: CDK2/cyclinE; assay type: biochemical; details: duplicate
Method: as §1

LCK = LCK (Homo sapiens, UniProt P06239); test: radiometric kinase assay, other kinases: LCK; assay type: biochemical; details: duplicate
Method: as §1

P38a/MAPK14 = P38a/MAPK14 (Homo sapiens, UniProt Q16539); test: radiometric kinase assay, other kinases: P38a/MAPK14; assay type: biochemical; details: duplicate
P38a/MAPK14, sequence (Q16539 whole entry): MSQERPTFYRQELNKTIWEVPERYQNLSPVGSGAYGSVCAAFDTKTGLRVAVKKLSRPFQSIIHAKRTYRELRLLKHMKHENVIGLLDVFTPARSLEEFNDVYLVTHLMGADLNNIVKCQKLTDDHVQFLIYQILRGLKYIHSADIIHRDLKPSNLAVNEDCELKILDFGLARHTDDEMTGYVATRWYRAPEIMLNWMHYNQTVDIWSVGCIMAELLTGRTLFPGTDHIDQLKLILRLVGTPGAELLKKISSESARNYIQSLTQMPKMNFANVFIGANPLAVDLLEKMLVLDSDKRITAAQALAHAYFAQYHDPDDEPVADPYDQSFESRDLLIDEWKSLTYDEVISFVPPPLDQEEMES
Method: as §1

ARAF = ARAF (Homo sapiens, UniProt P10398); test: radiometric kinase assay, other kinases: ARAF; assay type: biochemical; details: duplicate
ARAF, sequence (P10398 whole entry): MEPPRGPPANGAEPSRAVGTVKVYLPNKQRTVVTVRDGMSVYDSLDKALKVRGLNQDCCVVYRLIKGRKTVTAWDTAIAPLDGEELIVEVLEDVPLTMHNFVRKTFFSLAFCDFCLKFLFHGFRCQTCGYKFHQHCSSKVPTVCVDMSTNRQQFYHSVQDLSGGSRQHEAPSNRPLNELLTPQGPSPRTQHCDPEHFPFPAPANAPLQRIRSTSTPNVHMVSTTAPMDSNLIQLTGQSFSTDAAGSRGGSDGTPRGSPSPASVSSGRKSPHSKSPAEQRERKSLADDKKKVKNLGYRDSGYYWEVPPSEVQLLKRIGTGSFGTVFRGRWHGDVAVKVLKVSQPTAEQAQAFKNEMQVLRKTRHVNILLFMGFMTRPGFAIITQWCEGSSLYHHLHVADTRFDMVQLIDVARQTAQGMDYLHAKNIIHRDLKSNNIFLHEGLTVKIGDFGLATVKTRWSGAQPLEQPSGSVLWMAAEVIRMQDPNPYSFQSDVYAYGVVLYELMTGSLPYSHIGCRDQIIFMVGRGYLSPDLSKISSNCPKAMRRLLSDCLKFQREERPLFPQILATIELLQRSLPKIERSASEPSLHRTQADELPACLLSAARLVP
Method: as §1

EPHA1 = molecular target: T4, EPHA1 (Homo sapiens, UniProt P21709); test: radiometric kinase assay, other kinases: EPHA1; assay type: biochemical; details: duplicate
T4 construct: other kinases of recombinant human cytoplasmic domain
T4 sequence (P21709 569-976 limits assumed): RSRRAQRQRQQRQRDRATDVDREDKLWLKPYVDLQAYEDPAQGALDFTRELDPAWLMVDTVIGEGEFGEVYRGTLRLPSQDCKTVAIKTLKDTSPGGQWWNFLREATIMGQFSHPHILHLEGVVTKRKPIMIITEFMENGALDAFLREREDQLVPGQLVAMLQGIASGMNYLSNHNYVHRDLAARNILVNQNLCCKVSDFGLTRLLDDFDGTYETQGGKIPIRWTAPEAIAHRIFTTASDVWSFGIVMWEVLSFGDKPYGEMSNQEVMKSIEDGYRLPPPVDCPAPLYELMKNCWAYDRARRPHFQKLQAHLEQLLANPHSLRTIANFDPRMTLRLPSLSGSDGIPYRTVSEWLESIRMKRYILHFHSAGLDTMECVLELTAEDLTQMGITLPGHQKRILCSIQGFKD
Method: as §1

TrkC [4] = molecular target: T5, TrkC (Homo sapiens, UniProt Q16288); test: live whole cell based functional assay, NT3 stimulated TrkC activation; parameters: expressed in transfected cells; details: triplicate
FGR = FGR (Homo sapiens, UniProt P09769); test: radiometric kinase assay, other kinases: FGR; assay type: biochemical; details: duplicate
Method: as §1

TrkC [5] = molecular target: T5, TrkC; test: radiometric kinase assay, other kinases: TrkC; assay type: biochemical; parameters: other kinases of recombinant human cytoplasmic domain; details: duplicate
Method: as §1
Target sequence in this assay (Q16288 454-839 limits assumed): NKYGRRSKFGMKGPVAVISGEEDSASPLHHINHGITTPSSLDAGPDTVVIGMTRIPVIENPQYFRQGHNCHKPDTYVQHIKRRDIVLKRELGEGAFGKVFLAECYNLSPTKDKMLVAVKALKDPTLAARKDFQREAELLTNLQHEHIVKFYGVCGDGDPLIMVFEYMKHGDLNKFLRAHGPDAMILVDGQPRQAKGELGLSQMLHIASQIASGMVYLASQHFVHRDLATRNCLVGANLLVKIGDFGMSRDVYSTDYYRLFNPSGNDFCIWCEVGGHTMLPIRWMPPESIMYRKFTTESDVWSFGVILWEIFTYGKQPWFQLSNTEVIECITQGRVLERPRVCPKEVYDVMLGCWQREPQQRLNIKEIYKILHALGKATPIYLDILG

[6] = tested on: MIA PaCa-2 human pancreatic cancer cells; test: Cell Viability and Proliferation Assay, MIA PaCa-2; assay type: cell-based; details: after 24 incubation
Method: as §2

TGFbR2 = molecular target: T6, TGFbR2 (Homo sapiens, UniProt P37173); test: radiometric kinase assay, other kinases: TGFbR2; assay type: biochemical; details: duplicate
T6 construct: other kinases of recombinant human cytoplasmic domain
T6 sequence (P37173 188-567 limits assumed): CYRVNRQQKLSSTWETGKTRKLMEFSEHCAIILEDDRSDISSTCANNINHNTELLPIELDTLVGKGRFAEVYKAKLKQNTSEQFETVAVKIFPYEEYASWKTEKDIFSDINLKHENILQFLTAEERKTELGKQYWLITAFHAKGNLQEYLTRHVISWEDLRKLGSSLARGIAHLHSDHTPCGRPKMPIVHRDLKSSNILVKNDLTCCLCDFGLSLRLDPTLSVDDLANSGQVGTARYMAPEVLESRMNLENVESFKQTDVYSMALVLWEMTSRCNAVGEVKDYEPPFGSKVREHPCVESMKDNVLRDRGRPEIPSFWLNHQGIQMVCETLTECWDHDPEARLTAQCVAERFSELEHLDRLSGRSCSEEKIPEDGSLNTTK
Method: as §1

PKG1b, sequence (Q13976 1-686 isoform Q13976-2): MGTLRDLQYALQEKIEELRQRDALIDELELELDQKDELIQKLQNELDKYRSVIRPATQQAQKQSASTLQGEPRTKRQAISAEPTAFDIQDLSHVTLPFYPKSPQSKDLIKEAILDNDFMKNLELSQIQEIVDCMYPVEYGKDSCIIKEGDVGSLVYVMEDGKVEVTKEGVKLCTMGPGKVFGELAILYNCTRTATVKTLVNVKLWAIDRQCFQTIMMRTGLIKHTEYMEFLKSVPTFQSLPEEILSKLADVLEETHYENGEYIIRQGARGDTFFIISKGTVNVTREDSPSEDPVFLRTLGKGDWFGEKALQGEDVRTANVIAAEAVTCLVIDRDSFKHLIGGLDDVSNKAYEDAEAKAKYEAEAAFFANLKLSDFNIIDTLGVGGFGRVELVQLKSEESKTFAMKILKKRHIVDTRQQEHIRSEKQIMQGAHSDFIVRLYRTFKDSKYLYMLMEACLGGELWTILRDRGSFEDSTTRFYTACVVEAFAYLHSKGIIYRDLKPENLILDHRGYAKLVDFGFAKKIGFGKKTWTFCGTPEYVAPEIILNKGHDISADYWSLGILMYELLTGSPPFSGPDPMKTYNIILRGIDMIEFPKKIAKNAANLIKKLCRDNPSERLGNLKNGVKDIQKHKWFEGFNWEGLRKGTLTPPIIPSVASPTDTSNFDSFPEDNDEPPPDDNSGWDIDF

IC50 (PKG1b): > 10 µM
IC50 (PKD2/PRKD2): > 10 µM
IC50 (MEK1): > 10 µM
IC50 (PDGFRb): > 10 µM
IC50 [1]: ~5 µM
IC50 (CDK1/cyclinB): > 10 µM
IC50 (MUSK): > 10 µM
IC50 (c-MET): > 10 µM
IC50 (PKCepsilon): > 10 µM
IC50 (PKCbetaII): > 10 µM
IC50 [3]: 2 to 5 µM
IC50 (P38b/MAPK11): > 10 µM
IC50 (ITK): > 10 µM
IC50 (MLK1/MAP3K9): > 10 µM
IC50 (CDK2/cyclinE): > 10 µM
IC50 (LCK): > 10 µM
IC50 (P38a/MAPK14): > 10 µM
IC50 (ARAF): > 10 µM
IC50 (EPHA1): > 10 µM
IC50 (TrkC [4]): > 10 µM
IC50 (FGR): > 10 µM
IC50 (TrkC [5]): > 10 µM
IC50 [6]: 2 to 5 µM
IC50 (TGFbR2): > 10 µM
Compound: Nc1c(N2CCN(C3CCCCC3)CC2)cc(Nc2ccc(C(=O)O)cc2)c2c1C(=O)c1ccccc1C2=O [Compound 12, 4-{[4-amino-3-(4-cyclohexylpiperazin-1-yl)-9,10-dioxo-9,10-dihydroanthracen-1-yl]amino}benzoic acid]
relative analgesic effect compared to morphine (HCl) at 3 mg/kg, s.c. [2]: about 48%
